Patent US5187195A, “Anthraquinone derivatives and preparation thereof” (Fujisawa Pharmaceutical Co., Ltd., priority 1989, dated 1993)

Legend:
[1] = target: T1, crude receptor membrane fractions of porcine aorta (^125 I-endothelin binding) (Sus scrofa, UniProt Q29010); test: Radioligand binding assay (^125 I-Endothelin binding to porcine aorta membrane fractions); conditions: for IC50: concentration required to compete with ^125 I-endothelin (1.67×10^-11 M) for binding to porcine aorta membrane fractions by 50%, 60 minutes, room temperature, pH 7.5
T1 construct: tissue Pel-Freez Biologicals (U.S.A.); host or cells: porcine aorta, crude membrane fractions
T1 sequence (Q29010 21-427): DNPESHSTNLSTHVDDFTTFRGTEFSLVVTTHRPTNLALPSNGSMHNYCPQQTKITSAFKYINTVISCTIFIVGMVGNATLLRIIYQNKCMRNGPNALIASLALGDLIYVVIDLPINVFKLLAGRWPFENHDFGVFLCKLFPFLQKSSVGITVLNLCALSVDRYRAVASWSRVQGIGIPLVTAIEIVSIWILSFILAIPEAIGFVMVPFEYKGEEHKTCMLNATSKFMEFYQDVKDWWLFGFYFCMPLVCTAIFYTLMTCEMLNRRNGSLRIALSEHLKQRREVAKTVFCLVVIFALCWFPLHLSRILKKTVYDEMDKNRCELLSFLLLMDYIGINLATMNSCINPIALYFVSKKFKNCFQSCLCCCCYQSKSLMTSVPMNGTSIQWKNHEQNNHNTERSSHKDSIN
Description: Radioligand Binding Assay
(a) Preparation of crude receptor membrane fractions
Porcine aorta was purchased from Pel-Freez Biologicals (U.S.A.) and stored at -80° C. until use.
Porcine aorta (50 g) was thawed and dissected free from fatty tissue, minced with scissors and then homogenized with a polytron (Brinkmann PT-20, maximal speed for 3×10 sec) in 100 ml buffer (0.25 M sucrose, 10 mM Tris-HCl, 0.1 mM EDTA, pH 7.5).
The homogenate was centrifuged at 10,000 g for 20 minutes at 4° C.
The supernatant, containing the plasma membrane fraction, was centrifuged at 100,000 g for 60 minutes at 4° C., and then resultant pellets were referred to as crude membrane fractions.
The pellets were resuspended in 25 ml of binding assay buffer (50 mM Tris-HCl, 100 mM NaCl, 5 mM MgCl2, 1.5 μg/ml phenylmethylsulfonyl fluoride (PMSF), 120 μg/ml bacitracin, 12 μg/ml leupepcin, 6 μg/ml chymostain, 0.1% bovine serum albumin (BSA), pH 7.5)
The aorta membrane fractions were stored at -80° C. until use.
(b) ^125 I-Endothelin Binding Assay
^125 I-Endothelin (1.67×10^-11 M) (Amersham Japan, specific activity: 2000 Ci/m mol) was incubated with 50 μl of the aorta membrane fractions in binding assay buffer at room temperature (20°-22° C.) for 60 minutes in a final volume of 250 μl.
After incubation, the incubation mixture were filtered through Glass-fiber GF/C filter (pretreated with 0.1% polyethylene imine for 3 hours prior to use) using cell harvester (Brandel M-245). The filters were then washed ten times with a total of 3 ml of the washing buffer (50 mM Tris-HCl, pH 7.5) at 0° C. The filters were counted in a gamma counter (Packard Auto Gamma Model 5650).
The activity of test compounds was expressed as IC50 value, i.e. concentration required to compete with ^125 I-endothelin for binding to prorcine aorta membrane fractions by 50%.

[2] = tested on: endothelin induced pressor response; test: In vivo pressor effect in conscious rats (inhibition of endothelin induced pressor response); parameters: species or system rat (male Wister); conditions: 10 mg/kg i.v., 3 minutes before endothelin 2.4 μg/kg i.v., three rats
Description: Assay of In Vivo Pressor Effect in Conscious Rats
Male Wister rats (10 weeks old) were used. The mean arterial blood pressure was recorded from femoral artery via polyethylene catheter connected to the pressure transducer which was coupled to a Biophysiograph 180 system (Nihondenki-San-Ei Instrument Co., Ltd.).
FR901366 substance and endothelin were dissolved in saline and injected in bolus (0.2 ml) through polyethylene cateter inserted via femoral vein.
FR901366 substance was administered 3 minutes before the injection of endothelin. Inhibitory activity of FR90136 substance (10 mg/kg, i. v.) against endothelin (2.4 μg/kg, i. v.) induced pressor response was evaluated with a group of three rats and shown in Table 8.

[3] = tested on: contraction response of rabbit thoracic aorta induced by endothelin; test: Effect on rabbit aorta contraction response of endothelin (isolated strips); parameters: species or system rabbit (male albino); conditions: Oryctolagus cuniculus, endothelin 3.2×10^-9 M, % inhibition of maximum contraction, compound added after full contraction; for inhibition at 100 µM: 1 × 10^-4 M; for inhibition at 10 µM: 1 × 10^-5 M
Description: Effect of FR901366 Substance and FR901367 Substance on Rabbit Aorta of Contraction Response of Endothelin
Thoracic aorta were isolated from freshly killed male albino rabbits (11 weeks old) and cut into 25 mm strips with the intima denuded. After removing fatty tissues, these arterial segments (2 mm width and 25 mm length) were suspended in 25 ml organ chambers filled with Krebs-Ringer solution (113 mM NaCl, 4.8 mM KCl, 2.2 mM CaCl2, 1.2 mM MgCl2, 25 mM NaHCO3, 1.2 mM KH2 PO4, 5.5 mM glucose) maintained at 37° C. and gassed with 95% O2 /5% CO2.
A preload of 1 g was applied after the aorta had been conditioned by application of increasing concentration of KCl. Contractions were measured as an increase in isometric tension.
The test compound was tested against contraction response of endothelin (3.2×10^-9 M). Synthetic endothelin was obtained from Peptide Institute Inc. (Osaka, Japan). The test compound substance was added after the full contraction response induced endothelin.
The activity of the test compounds is expressed as the percentage inhibition of maximum contraction response induced by endothelin and shown in Table 7.

Solubility = format: physicochemical

COC(=O)C(CSC12CCC3(O)CC(C)=CC(=O)C3(O)C1(O)C(=O)c1cccc(O)c1C2=O)NC(C)=O (centres unmarked) [FR134624]
IC50 [1]: 10.5 µM

COC(=O)C(CSC12C(=O)c3c(O)cccc3C(=O)C1(O)C1(O)C(=O)C=C(C)CC1(O)CC2O)NC(C)=O (centres unmarked) [FR129795]
IC50 [1]: 2.73 µM

CCCCCC(=O)NC(CSC12CCC3(O)CC(C)=CC(=O)C3(O)C1(O)C(=O)c1cccc(O)c1C2=O)C(=O)O (centres unmarked) [FR131668]
IC50 [1]: 17 µM

COC(=O)[C@H](Cc1c[nH]c2ccccc12)NC(=O)C(CSC12CCC3(O)CC(C)=CC(=O)C3(O)C1(O)C(=O)c1cccc(O)c1C2=O)NC(C)=O (some centres unmarked) [FR134762]
IC50 [1]: 11.9 µM

CC1=CC(=O)C2(O)C(O)(CCC3(SCC(NC(=O)Cc4ccc(Cl)cc4)C(=O)O)C(=O)c4c(O)cccc4C(=O)C32O)C1 (centres unmarked) [FR131663]
IC50 [1]: 38.7 µM

CC[C@H](C)[C@H](NC(=O)C(CSC12CCC3(O)CC(C)=CC(=O)C3(O)C1(O)C(=O)c1cccc(O)c1C2=O)NC(C)=O)C(=O)N[C@@H](Cc1c[nH]c2ccccc12)C(=O)OC (some centres unmarked) [FR134763]
IC50 [1]: 37.2 µM

COC(=O)C(CSC12CCC3(OC(C)=O)CC(C)=CC(=O)C3(OC(C)=O)C1(OC(C)=O)C(=O)c1cccc(OC(C)=O)c1C2=O)NC(C)=O (centres unmarked) [FR134625]
IC50 [1]: 356 µM

COC(=O)C(CSC12C(=O)c3c(O)cccc3C(=O)C1(O)C1(O)C(=O)C=C(C)CC1(O)CC2OC(C)=O)NC(C)=O (centres unmarked) [FR129796]
IC50 [1]: 13.5 µM

CC(=O)NC(CSC12CCC3(O)CC(C)=CC(=O)C3(O)C1(O)C(=O)c1cccc(O)c1C2=O)C(=O)O (centres unmarked) [FR901366]
Inhibition of endothelin pressor response ([2]; 5 min after administration): 27.2% | Inhibition of endothelin pressor response ([2]; 10 min after administration): 50.0% | Inhibition of endothelin pressor response ([2]; 20 min after administration): 63.3% | Inhibition of endothelin pressor response ([2]; 30 min after administration): 53.8% | Inhibition of endothelin pressor response ([2]; 60 min after administration): 66.6% | Inhibition of endothelin pressor response ([2]; 120 min after administration): 50.0% | IC50 [1]: 5.97 µM | inhibition at 100 µM [3]: 39% | inhibition at 10 µM [3]: 15% | Solubility (Solubility; acetone): soluble | Solubility (Solubility; chloroform): sparingly soluble | Solubility (Solubility; hexane): insoluble | Solubility (Solubility; methanol): soluble | Solubility (Solubility; water): insoluble

CC1=CC(=O)C2(O)C(O)(CCC3(SCC(N)C(=O)O)C(=O)c4c(O)cccc4C(=O)C32O)C1 (centres unmarked) [FR131132]
IC50 [1]: 147 µM | Solubility (Solubility; chloroform): insoluble | Solubility (Solubility; ethanol): sparingly soluble | Solubility (Solubility; methanol): sparingly soluble | Solubility (Solubility; n-hexane): insoluble | Solubility (Solubility; water): sparingly soluble

CC1=CC(=O)C2(O)C(O)(CCC3(SCC(NC(=O)C(C)C)C(=O)O)C(=O)c4c(O)cccc4C(=O)C32O)C1 (centres unmarked) [FR131667]
IC50 [1]: 106 µM

COC(=O)C(CSC12C(=O)c3c(OC(C)=O)cccc3C(=O)C1(O)C1(O)C(=O)C=C(C)CC1(O)CC2OC(C)=O)NC(C)=O (centres unmarked) [FR129797]
IC50 [1]: 10.3 µM

CC[C@H](C)[C@H](NC(=O)C(CSC12CCC3(O)CC(C)=CC(=O)C3(O)C1(O)C(=O)c1cccc(O)c1C2=O)NC(C)=O)C(=O)N[C@@H](Cc1c[nH]c2ccccc12)C(=O)O (some centres unmarked) [FR134764]
IC50 [1]: 12 µM

CC1=CC(=O)C2(O)C(O)(CCC3(SCC(NC(=O)OC(C)(C)C)C(=O)O)C(=O)c4c(O)cccc4C(=O)C32O)C1 (centres unmarked) [FR131662]
IC50 [1]: 4.33 µM

CC1=CC(=O)C2(O)C(O)(C1)CC(O)C1(SCC(N)C(=O)O)C(=O)c3c(O)cccc3C(=O)C12O (centres unmarked) [FR134851]
IC50 [1]: 20.7 µM | Solubility (Solubility; chloroform): insoluble | Solubility (Solubility; ethanol): soluble | Solubility (Solubility; methanol): soluble | Solubility (Solubility; n-hexane): insoluble | Solubility (Solubility; water): sparingly soluble

CC(=O)NC(CSC12C(=O)c3c(O)cccc3C(=O)C1(O)C1(O)C(=O)C=C(C)CC1(O)CC2O)C(=O)O (centres unmarked) [FR901367]
IC50 [1]: 0.672 µM | competition with ^125 I-endothelin for binding to porcine aorta membrane fractions ([1]; result in words): competes with ^125 I-endothelin for binding | inhibition at 100 µM [3]: 75% | inhibition at 10 µM [3]: 38.6% | Solubility (Solubility; acetone): sparingly soluble | Solubility (Solubility; ethanol): soluble | Solubility (Solubility; ethyl acetate): sparingly soluble | Solubility (Solubility; methanol): soluble | Solubility (Solubility; n-hexane): insoluble | Solubility (Solubility; water): sparingly soluble

CC(=O)NC(CSC12CCC3(O)CC(C)=CC(=O)C3(O)C1(O)C(=O)c1cccc(O)c1C2=O)C(=O)NCCO (centres unmarked) [FR134761]
IC50 [1]: 10.3 µM

CC1=CC(=O)C2(O)C(O)(CCC3(SCC(NC(=O)c4ccccc4)C(=O)O)C(=O)c4c(O)cccc4C(=O)C32O)C1 (centres unmarked) [FR131661]
IC50 [1]: 22 µM
